Measurements: PubChem BioAssay (NCI)
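The compound was tested at five concentrations on cells cultured in 96-well plates, with a 48-hour exposure period. Definition used: TGI = concentration required for complete inhibition of growth.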

Experiments:
Assay in all cases: growth of human tumour cells (NCI), 48 h
SK-MEL-5 melanoma = system: SK-MEL-5 melanoma
CCRF-CEM leukemia = system: CCRF-CEM leukemia
OVCAR-8 ovarian = system: OVCAR-8 ovarian
HOP-92 NSCLC = system: HOP-92 NSCLC
SF-295 CNS = system: SF-295 CNS
NCI-H522 lung = system: NCI-H522 lung
BT-549 breast = system: BT-549 breast
HCC-2998 colon = system: HCC-2998 colon
CAKI-1 renal = system: CAKI-1 renal
RPMI-8226 leukemia = system: RPMI-8226 leukemia
A498 renal = system: A498 renal
TK-10 renal = system: TK-10 renal
KM12 colon = system: KM12 colon
SF-268 CNS = system: SF-268 CNS
NCI-H226 lung = system: NCI-H226 lung
HOP-62 NSCLC = system: HOP-62 NSCLC
SNB-75 CNS = system: SNB-75 CNS
HCT-116 colon = system: HCT-116 colon
786-0 renal = system: 786-0 renal
OVCAR-5 ovarian = system: OVCAR-5 ovarian
OVCAR-3 ovarian = system: OVCAR-3 ovarian
SF-539 CNS = system: SF-539 CNS
HL-60(TB) leukemia = system: HL-60(TB) leukemia
ACHN renal = system: ACHN renal
K-562 leukemia = system: K-562 leukemia
MDA-MB-231 breast = system: MDA-MB-231 breast
A549 NSCLC = system: A549 NSCLC
SR leukemia = system: SR leukemia
HT29 colon = system: HT29 colon
LOX IMVI melanoma = system: LOX IMVI melanoma
IGROV1 ovarian = system: IGROV1 ovarian
DU-145 prostate = system: DU-145 prostate
UACC-257 melanoma = system: UACC-257 melanoma
T-47D breast = system: T-47D breast
PC-3 prostate = system: PC-3 prostate
SK-MEL-2 melanoma = system: SK-MEL-2 melanoma
MDA-MB-435 = system: MDA-MB-435
OVCAR-4 ovarian = system: OVCAR-4 ovarian
HCT-15 colon = system: HCT-15 colon
SN12C renal = system: SN12C renal
MCF7 breast = system: MCF7 breast
SW-620 colon = system: SW-620 colon
NCI-H23 lung = system: NCI-H23 lung
MOLT-4 leukemia = system: MOLT-4 leukemia
U251 CNS = system: U251 CNS
COLO 205 colon = system: COLO 205 colon
HS 578T breast = system: HS 578T breast
SK-OV-3 ovarian = system: SK-OV-3 ovarian
SK-MEL-28 melanoma = system: SK-MEL-28 melanoma
MDA-N = system: MDA-N
SNB-19 CNS = system: SNB-19 CNS
UACC-62 melanoma = system: UACC-62 melanoma
NCI-H460 lung = system: NCI-H460 lung
MALME-3M melanoma = system: MALME-3M melanoma
EKVX NSCLC = system: EKVX NSCLC
M14 melanoma = system: M14 melanoma
NCI/ADR-RES ovarian = system: NCI/ADR-RES ovarian
UO-31 renal = system: UO-31 renal
RXF 393 renal = system: RXF 393 renal

Cc1c(Cl)cccc1NC(=O)/C=C/c1ccccc1 showed a TGI (SK-MEL-5 melanoma) greater than 100 µM, a TGI (CCRF-CEM leukemia) greater than 100 µM and a TGI (OVCAR-8 ovarian) greater than 100 µM. The TGI (HOP-92 NSCLC) was greater than 100 µM, the TGI (SF-295 CNS) was greater than 100 µM and the TGI (NCI-H522 lung) was greater than 100 µM. For the same molecule, the TGI (BT-549 breast) was greater than 100 µM, the TGI (HCC-2998 colon) was greater than 100 µM and the TGI (CAKI-1 renal) was 73.3 µM. The TGI (RPMI-8226 leukemia) was greater than 100 µM, the TGI (A498 renal) was greater than 100 µM and the TGI (TK-10 renal) was greater than 100 µM. It also gave a TGI (KM12 colon) greater than 100 µM, a TGI (SF-268 CNS) greater than 100 µM and a TGI (NCI-H226 lung) greater than 100 µM. The TGI (HOP-62 NSCLC) was greater than 100 µM, the TGI (SNB-75 CNS) was greater than 100 µM and the TGI (HCT-116 colon) was greater than 100 µM. For the same molecule, the TGI (786-0 renal) was greater than 100 µM, the TGI (OVCAR-5 ovarian) was greater than 100 µM and the TGI (OVCAR-3 ovarian) was greater than 100 µM. It also gave a TGI (SF-539 CNS) greater than 100 µM, a TGI (HL-60(TB) leukemia) greater than 100 µM and a TGI (ACHN renal) greater than 100 µM. It also gave a TGI (K-562 leukemia) greater than 100 µM, a TGI (MDA-MB-231 breast) of 96.3 µM and a TGI (A549 NSCLC) greater than 100 µM. The TGI (SR leukemia) was greater than 100 µM, the TGI (HT29 colon) was greater than 100 µM and the TGI (LOX IMVI melanoma) was greater than 100 µM. It also gave a TGI (IGROV1 ovarian) greater than 100 µM, a TGI (DU-145 prostate) greater than 100 µM and a TGI (UACC-257 melanoma) greater than 100 µM. It also gave a TGI (T-47D breast) greater than 100 µM, a TGI (PC-3 prostate) greater than 100 µM and a TGI (SK-MEL-2 melanoma) greater than 100 µM. The TGI (MDA-MB-435) was greater than 100 µM, the TGI (OVCAR-4 ovarian) was greater than 100 µM and the TGI (HCT-15 colon) was greater than 100 µM. For the same molecule, the TGI (SN12C renal) was greater than 100 µM, the TGI (MCF7 breast) was greater than 100 µM and the TGI (SW-620 colon) was greater than 100 µM. It also gave a TGI (NCI-H23 lung) greater than 100 µM, a TGI (MOLT-4 leukemia) greater than 100 µM and a TGI (U251 CNS) greater than 100 µM. The TGI (COLO 205 colon) was greater than 100 µM, the TGI (HS 578T breast) was greater than 100 µM and the TGI (SK-OV-3 ovarian) was greater than 100 µM. It also gave a TGI (SK-MEL-28 melanoma) greater than 100 µM, a TGI (MDA-N) greater than 100 µM and a TGI (SNB-19 CNS) greater than 100 µM. The TGI (UACC-62 melanoma) was greater than 100 µM, the TGI (NCI-H460 lung) was greater than 100 µM and the TGI (MALME-3M melanoma) was greater than 100 µM. For the same molecule, the TGI (EKVX NSCLC) was greater than 100 µM and the TGI (M14 melanoma) was greater than 100 µM.

CO/N=C(\C([O-])=N\[n+]1cnn(CC(=O)OC(C)(C)C)c1)c1csc(NC(c2ccccc2)(c2ccccc2)c2ccccc2)n1 showed a TGI (SK-MEL-5 melanoma) greater than 10 µM, a TGI (CCRF-CEM leukemia) greater than 10 µM and a TGI (OVCAR-8 ovarian) greater than 10 µM. The TGI (HOP-92 NSCLC) was greater than 10 µM, the TGI (SF-295 CNS) was greater than 10 µM and the TGI (NCI-H522 lung) was greater than 10 µM. It also gave a TGI (BT-549 breast) greater than 10 µM, a TGI (HCC-2998 colon) greater than 10 µM and a TGI (CAKI-1 renal) greater than 10 µM. For the same molecule, the TGI (RPMI-8226 leukemia) was greater than 10 µM, the TGI (A498 renal) was greater than 10 µM and the TGI (TK-10 renal) was greater than 10 µM. The TGI (KM12 colon) was greater than 10 µM, the TGI (SF-268 CNS) was greater than 10 µM and the TGI (NCI-H226 lung) was greater than 10 µM. It also gave a TGI (HOP-62 NSCLC) greater than 10 µM, a TGI (SNB-75 CNS) greater than 10 µM and a TGI (HCT-116 colon) greater than 10 µM. The TGI (786-0 renal) was greater than 10 µM, the TGI (OVCAR-5 ovarian) was greater than 10 µM and the TGI (OVCAR-3 ovarian) was greater than 10 µM. For the same molecule, the TGI (SF-539 CNS) was greater than 10 µM, the TGI (HL-60(TB) leukemia) was greater than 10 µM and the TGI (ACHN renal) was greater than 10 µM. The TGI (K-562 leukemia) was greater than 10 µM, the TGI (A549 NSCLC) was greater than 10 µM and the TGI (SR leukemia) was greater than 10 µM. It also gave a TGI (HT29 colon) greater than 10 µM, a TGI (LOX IMVI melanoma) greater than 10 µM and a TGI (IGROV1 ovarian) greater than 10 µM. It also gave a TGI (DU-145 prostate) greater than 10 µM, a TGI (UACC-257 melanoma) greater than 10 µM and a TGI (T-47D breast) greater than 10 µM. For the same molecule, the TGI (PC-3 prostate) was greater than 10 µM, the TGI (SK-MEL-2 melanoma) was greater than 10 µM and the TGI (OVCAR-4 ovarian) was greater than 10 µM. It also gave a TGI (HCT-15 colon) greater than 10 µM, a TGI (SN12C renal) greater than 10 µM and a TGI (MCF7 breast) greater than 10 µM. The TGI (SW-620 colon) was greater than 10 µM, the TGI (NCI-H23 lung) was greater than 10 µM and the TGI (MOLT-4 leukemia) was greater than 10 µM. For the same molecule, the TGI (U251 CNS) was greater than 10 µM, the TGI (COLO 205 colon) was greater than 10 µM and the TGI (HS 578T breast) was greater than 10 µM. It also gave a TGI (SK-OV-3 ovarian) greater than 10 µM, a TGI (SK-MEL-28 melanoma) greater than 10 µM and a TGI (NCI/ADR-RES ovarian) greater than 10 µM. The TGI (UO-31 renal) was greater than 10 µM, the TGI (MDA-N) was greater than 10 µM and the TGI (SNB-19 CNS) was greater than 10 µM. For the same molecule, the TGI (NCI-H460 lung) was greater than 10 µM, the TGI (MALME-3M melanoma) was greater than 10 µM and the TGI (EKVX NSCLC) was greater than 10 µM. It also gave a TGI (RXF 393 renal) greater than 10 µM and a TGI (M14 melanoma) greater than 10 µM.
